tested on: HA‐SlCaM3/4/5; assay type: binding, tomato (Solanum lycopersicum)

| Molecule | effect on GFP-SFI5/HA-SlCaM3/4/5 association |
| --- | --- |
| LaCl3 | significantly inhibited by the presence of CaM antagonist and Ca^2+ channel blockers |
| EDTA | significantly inhibited by the presence of CaM antagonist and Ca^2+ channel blockers |
| NCCCCCCNS(=O)(=O)c1cccc2c(Cl)cccc12 [Peptide W7, N‐(6‐aminohexyl)‐5‐chloro‐1‐naphthalene‐sulphonamide] | significantly inhibited by the presence of CaM antagonist and Ca^2+ channel blockers |
